Drawing on patent US20250145575A1, “MACROMOLECULE-SUPPORTED 8-SULFONYL-BENZAZEPINE COMPOUNDS AND THEIR USES” (BOLT BIOTHERAPEUTICS, INC., priority 2022, published 2025), this text covers EC50 for three molecules.

In one test the target is T1, human TLR7 (Homo sapiens, UniProt Q9NYK1).
T1 construct: host or cells: HEK293 reporter cells
T1 sequence (Q9NYK1 27-1049): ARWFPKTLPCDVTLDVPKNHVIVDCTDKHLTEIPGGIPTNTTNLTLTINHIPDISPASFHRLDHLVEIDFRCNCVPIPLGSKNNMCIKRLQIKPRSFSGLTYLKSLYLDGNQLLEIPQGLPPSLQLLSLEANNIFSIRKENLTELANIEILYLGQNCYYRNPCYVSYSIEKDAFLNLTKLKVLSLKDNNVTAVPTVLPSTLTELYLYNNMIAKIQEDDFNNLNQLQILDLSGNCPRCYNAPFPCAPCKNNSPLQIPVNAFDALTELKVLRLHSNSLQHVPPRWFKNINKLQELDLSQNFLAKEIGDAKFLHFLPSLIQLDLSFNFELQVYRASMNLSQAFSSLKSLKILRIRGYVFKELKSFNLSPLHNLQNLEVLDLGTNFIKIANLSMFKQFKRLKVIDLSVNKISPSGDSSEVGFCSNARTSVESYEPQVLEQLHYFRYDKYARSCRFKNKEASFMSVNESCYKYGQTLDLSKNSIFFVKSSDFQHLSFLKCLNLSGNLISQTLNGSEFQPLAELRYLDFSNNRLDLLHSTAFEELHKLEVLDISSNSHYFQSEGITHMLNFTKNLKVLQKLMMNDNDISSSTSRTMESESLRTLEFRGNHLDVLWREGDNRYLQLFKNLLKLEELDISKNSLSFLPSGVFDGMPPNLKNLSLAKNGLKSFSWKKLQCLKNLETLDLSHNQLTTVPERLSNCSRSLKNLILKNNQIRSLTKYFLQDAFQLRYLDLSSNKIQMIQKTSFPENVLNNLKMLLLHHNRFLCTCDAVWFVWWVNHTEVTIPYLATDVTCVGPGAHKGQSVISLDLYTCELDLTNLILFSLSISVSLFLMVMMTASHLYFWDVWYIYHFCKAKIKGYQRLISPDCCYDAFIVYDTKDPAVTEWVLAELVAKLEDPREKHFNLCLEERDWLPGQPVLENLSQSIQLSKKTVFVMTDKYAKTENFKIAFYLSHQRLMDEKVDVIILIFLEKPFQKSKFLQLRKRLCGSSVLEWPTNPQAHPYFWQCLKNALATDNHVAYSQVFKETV
As to the kind of experiment: HEK293 NFKB reporter assay, human TLR7. Type of test: cell-based. Conditions: HEK293 reporter cells expressing human TLR7; read-out: HEK293 hTLR7 EC50. The method, then:
(§1) Exemplary 8-sulfonyl-2-aminobenzazepine compounds (8SO2Bz) of the invention were synthesized, purified, and characterized by mass spectrometry and shown to have the expected mass. Additional experimental procedures are found in the Examples. Activity against HEK293 NFKB reporter cells expressing human TLR7 or human TLR8 was measured according to Example 202.
(§2) Example 202 HEK Reporter Assay
(§3) HEK293 reporter cells expressing human TLR7 or human TLR8 were purchased from Invivogen and vendor protocols were followed for cellular propagation and experimentation. Briefly, cells were grown to 80-85% confluence at 5% CO2 in DMEM supplemented with 10% FBS, Zeocin, and Blasticidin. Cells were then seeded in 96-well flat plates at 4×10^4 cells/well with substrate containing HEK detection medium and immunostimulatory molecules (MSC). Activity was measured using a plate reader at 620-655 nm wavelength.

In a further test the target is T2, human TLR8 (Homo sapiens, UniProt Q9NR97).
T2 construct: host or cells: HEK293 reporter cells
T2 sequence (Q9NR97 27-1041): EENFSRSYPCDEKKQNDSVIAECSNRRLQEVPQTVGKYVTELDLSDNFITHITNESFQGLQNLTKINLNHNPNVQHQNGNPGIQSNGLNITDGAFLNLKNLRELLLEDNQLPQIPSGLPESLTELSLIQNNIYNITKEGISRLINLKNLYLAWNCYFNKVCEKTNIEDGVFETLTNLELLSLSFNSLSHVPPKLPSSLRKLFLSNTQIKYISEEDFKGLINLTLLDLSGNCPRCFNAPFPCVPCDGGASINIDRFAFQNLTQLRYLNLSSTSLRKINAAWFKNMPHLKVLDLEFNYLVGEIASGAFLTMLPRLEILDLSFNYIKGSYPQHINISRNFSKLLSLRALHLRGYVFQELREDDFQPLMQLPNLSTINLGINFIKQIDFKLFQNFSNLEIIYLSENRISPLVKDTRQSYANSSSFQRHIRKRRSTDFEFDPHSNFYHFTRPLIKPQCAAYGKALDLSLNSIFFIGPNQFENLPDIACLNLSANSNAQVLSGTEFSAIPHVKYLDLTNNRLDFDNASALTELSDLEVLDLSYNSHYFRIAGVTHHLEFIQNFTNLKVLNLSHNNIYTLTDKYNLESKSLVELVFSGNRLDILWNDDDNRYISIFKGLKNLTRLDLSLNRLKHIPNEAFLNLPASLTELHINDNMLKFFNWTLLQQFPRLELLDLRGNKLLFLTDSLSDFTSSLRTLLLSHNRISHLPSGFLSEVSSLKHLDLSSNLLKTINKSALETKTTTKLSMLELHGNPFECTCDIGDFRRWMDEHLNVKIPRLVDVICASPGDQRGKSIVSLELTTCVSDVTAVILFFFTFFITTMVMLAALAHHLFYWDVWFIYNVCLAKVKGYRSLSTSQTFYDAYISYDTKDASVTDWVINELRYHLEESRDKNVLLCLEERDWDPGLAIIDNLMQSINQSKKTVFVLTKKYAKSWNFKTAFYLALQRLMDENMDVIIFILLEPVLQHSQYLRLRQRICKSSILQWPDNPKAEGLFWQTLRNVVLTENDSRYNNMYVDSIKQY
As to the kind of experiment: HEK293 NFKB reporter assay, human TLR8. Type of test: cell-based. Conditions: HEK293 reporter cells expressing human TLR8; read-out: HEK293 hTLR8 EC50. How it is done:
as §1, §2, §3

On to `CCCN(OCC)C(=O)C1=Cc2ccc(S(=O)(=O)c3ccc(C(=O)OC)cc3)cc2N=C(N)C1` [8SO2Bz-1], for which, on human TLR7, the EC50 is greater than 9000 nM.

`CCCN(OCCCC(=O)OC(C)(C)C)C(=O)C1=Cc2ccc(S(=O)(=O)N(C)C)cc2N=C(N)C1` [8SO2Bz-2]: the EC50 is 395 nM on human TLR7 and less than 2.3 nM on human TLR8.

Take `CCCN(OCC)C(=O)C1=Cc2ccc(S(=O)(=O)NC)cc2N=C(N)C1` [8SO2Bz-3]: the EC50 at human TLR7 was greater than 5000 nM.
